Measured values: patent US6025340A, “Surface expression of enzyme in gene directed prodrug therapy” (priority 1994, dated 2000)
pIC50: −log10 of the molar value.

How the values were obtained:
[1] = tested on: MDA MB361 transfected cells (CPG2-expressing line and control line); experiment: Sulphorhodamine B cytotoxicity assay; format: cell-based; details: 4 days incubation
Description: Prodrug 2 was also assayed (FIG. 12) in the MDA MB361 transfected cells obtained in Preparative Example 3 using a sulphorhodamine B cytotoxicity assay which was conducted by plating 5000 cells per well in a 96-well microtitre dish. The cells were plated in 160 μl of DMEM medium. After incubation over night the drug or appropriate controls made up in DMEM containing 5% serum was added to the wells in a 40 μl volume. The cells were incubated for 4 days under standard conditions. Following this the medium was removed and the cells treated with ice-cold 10% TCA (trichloroacetic acid) on ice for about 30 minutes. The TCA was removed and the cells rinsed for adding 18 μl of 0.4% sulphorhodamine B (SRB) which was left to stain the cells for 10 minutes. Following staining the cells were rinsed in TCA and air dried before addition of 18 μl of 10 mM TRIS and cell viability was then read. […] (see FIG. 12)

[2] = tested on: NIH3T3 cells transfected with MLVβplink; experiment: Cytotoxicity assay, [3H]-thymidine incorporation, transiently transfected control cells; format: cell-based, murine; details: CMDA 0.5 mM for 3 hours or 24 hours
Description: (§1) The ability of CPG2(surface) to kill NIH3T3 cells in the presence of the CMDA pro-drug was examined. Three sets of NIH3T3 cells were prepared, each of which contained one dish of cells transfected with MLVβplink, one dish of cells transfected with MLVCPG2(surface) or one dish of cells transfected with MLVCPG2(surface)LNLL. The cells were incubated for 42 hours following the transfection and then set 1 was incubated in the presence of prodrug vehicle (5 mM Hepes, 0.5% v/v DMSO, pH7.0; final concentrations) for 24 hours. Set 2 was incubated in the presence of the CMDA prodrug (0.5 mM final concentration) for 3 hours. Set 3 was incubated in CMDA (0.5 mM) for 24 hours. Following prodrug treatment, the cells were washed three times with 5 ml 10% FCS/ DMEM and sets 1 and 3 incubted in fresh medium for a further 24 hours, set 2 for 45 hours. The cells were then passaged into fresh culture dishes, seeded at 1×10^5 cells/ 35 mm dish in 2 ml FCS/ DMEM. After a further 72 hour incubation cell growth was assessed by [3H]-thymidine incorporation.
For thymidine incorporaion, 1 μCi of [methyl-^3 H]thymidine was added to each well (2 ml medium) and incubated for 5 hours at 37° C. […] The DNA was extracted with 1 ml 0.1 M NaOH, 1% SDS at room temperature for 5 minutes, added to 4 ml scintilation fluid and the incorporated thymidine determined by scintillation counting.

[3] = tested on: NIH3T3 cells transfected with MLVCPG2(surface)LNLL; experiment: Cytotoxicity assay, [3H]-thymidine incorporation, transiently transfected cells; format: cell-based, murine; details: CMDA 0.5 mM
Description: as §1
(§2) For thymidine incorporaion, 1 μCi of [methyl-^3 H]thymidine was added to each well (2 ml medium) and incubated for 5 hours at 37° C. The cells were washed twice with PBSA (4° C.) and fixed with 5% w/v trichloroacetic acid (TCA) in water at 4° C. for 20 minutes. The TCA was removed and the cells washed twice with 2 ml methanol and air dried. The DNA was extracted with 1 ml 0.1 M NaOH, 1% SDS at room temperature for 5 minutes, added to 4 ml scintilation fluid and the incorporated thymidine determined by scintillation counting.

[4] = tested on: NIH3T3 cells transfected with MLVCPG2(surface); experiment: as above; format: cell-based, murine; details: CMDA 0.5 mM
Description: as §1, §2

[5] = tested on: NIH3T3 cell line #3 constitutively expressing β-galactosidase; experiment: Cell survival by [3H]-thymidine incorporation, stable control line; format: cell-based, murine; details: increasing concentrations, 60 minutes at 37° C.
Description: (§3) Stable cell lines were prepared with NIH3T3 cells to constitutively express CPG2 (surface) LNLL, or as a control the lacZ gene product (β-galactosidase). In order to do this, NIH3T3 cells were transfected with pMCEF-CPG2(surface)LNLL or pMCEFlacZ as described in Comparative Example 1 above, and two days after transfection, the cells were plated at low density into medium containing G418 at 1 mg/ml. Colonies coming from single cells could be observed about two weeks later and these were cloned and grown up individually. The expression of CPG2(surface) was determined by immunoprotein blotting of […] of cell extract (extracted as described in the Comparative Example above) from each of the G418 resistant colonies with the antiserum from the Comparative Example 1 above. The cell line #16 which expresses high levels of CPG2(surface)LNLL (FIG. 6A) and cell line #3, which expresses the β-galactosidase (see below) were selected for further investigation. […] 250 μl of 1 MNa2 CO3 was added to the sample and the OD420 was measured.
(§4) Cell lines #3 and #16 obtained in Preparative Example 2 were tested for cytotoxicity with the CMDA pro-drug. […] After a further 6 hour incubation, 10% of the cells were re-plated into 24 well dishes, incubated for a further 5 days and cell survival was determined by [^3 H]-thymidine incorporation.

[6] = tested on: NIH3T3 cell line #16 constitutively expressing CPG2(surface)LNLL; experiment: Cell survival by [3H]-thymidine incorporation, stable line; format: cell-based, murine; details: Mus musculus, 60 minutes treatment at 37° C., survival after 5 days
Description: as §3, §4

[7] = tested on: mixture of NIH3T3 cell lines #3 and #16; experiment: Bystander effect, mixed cell lines, [3H]-thymidine incorporation; format: cell-based, murine; details: 40% of the cells expressing CPG2(surface)LNLL; 250 μM or 1000 μM CMDA for 60 minutes
Description: Cell lines #3 and #16 obtained in Preparative Example 2 were tested for cytotoxicity with the CMDA pro-drug. 1×10^5 cells were plated into each well of 24 well dishes, incubated for 40 hours and then treated with increasing concentrations of CMDA at 37° C. for 60 minutes. After a further 6 hour incubation, 10% of the cells were re-plated into 24 well dishes, incubated for a further 5 days and cell survival was determined by [^3 H]-thymidine incorporation.
The bystander effect was determined by mixing cell lines #3 and #16 obtained in Preparative Example 2 at a variety of concentrations as indicated and a total of 1×10^5 cells were plated per well in 24 well plates. The cells were incubated and treated as described in Example 3, except that they were treated with either 250 μM or 1000 μM CMDA for 60 minutes as indicated. The cell survival was determined as in Example 3.

[8] = tested on: MDA MB 361 cell line M38 constitutively expressing CPG2(surface)QQQ; experiment: Cell viability by [3H]-thymidine incorporation, stable line; format: cell-based; details: for sensitivity to prodrug compared with line M2: 60 minutes at 37° C., viability after 5 days
Description: (§5) CPG2(surface) QQQ was cloned into pMCEF-Plink as an Nco1/Xba fragment; this plasmid is called pMCEFCPG2(surface)QQQ. MDA361B cells were transfected with either pMCEFCPG2(surface)QQQ, or with pMCEFlacZ according to the protocol described in the Comparative Example and were treated as for the NIH3T3 cells to generate G418 colonies. The G418 resistant colonies were tested for CPG2(surface)QQQ expression by immunoprotein blot analysis, as described for the NIH3T3 cells. From these analyses, two cell lines, M2 which expresses β-galactosidase and M38, which expresses CPG2(surface)QQQ were selected for further testing. […] The expression of β-galactosidase by line M2 was confirmed by enzymatic assay (FIG. 10B, lane 1 contains M2 extract, lane 2 a control extract).
These cell lines were tested for sensitivity to the CMDA prodrug and prodrug 2. 1×10^5 cells were plated into each well of a 24 well plate. The cells were incubated for 48 hours at 37° C. They were then incubated in increasing concentrations of either CMDA or prodrug 2 for 60 minutes at 37° C., washed twice, returned to medium and incubated for a further 5 days. The viability of the cells was then determined by using [^3 H]-thymidine incorporation.
(§6) In order to examine the bystander effect with the MDA MB 361 cells constitutively expressing CPG2(surface)QQQ, the M38 cell line, the M2 cell line, or a 1:10 mixture of M38: M2 cells were plated (1×10^4 cells) into the wells of a 24 well plate, and incubated for 48 hours. The cells were then treated with varying concentrations of prodrug 2 for 60 min, washed twice with fresh medium and incubated in fresh medium for 5 days. The survival of the cells was then determined by [^3 H-methyl] thymidine incorporation.

[9] = tested on: MDA MB 361 cell line M2 constitutively expressing β-galactosidase; experiment: Cell viability by [3H]-thymidine incorporation, stable control line; format: cell-based
Description: as §5
These cell lines were tested for sensitivity to the CMDA prodrug and prodrug 2. 1×10^5 cells were plated into each well of a 24 well plate. The cells were incubated for 48 hours at 37° C. […] The viability of the cells was then determined by using [^3 H]-thymidine incorporation.
as §6, with “The cells were then treated with varying concentrations of prodrug 2 for 60 min, washed twice with fresh medium and incubated in fresh medium for 5 days.” left out

[10] = tested on: 1:10 mixture of M38:M2 MDA MB 361 cells; experiment: Bystander effect, mixed cell lines, [3H]-thymidine incorporation; format: cell-based; details: Example 7
Description: as §6

SMILES	difference in susceptibility, CPG2-expressing line versus control line [1]	effect of prodrug treatment on growth rate [2]	effect of prodrug treatment on cell growth ([3]; 24 hour prodrug treatment)	inhibition at 500 µM ([3]; Mus musculus, NIH3T3, 3 hour prodrug treatment, read-out: reduction in cell growth) [%]	effect of prodrug treatment on cell growth ([4]; 3 hour prodrug treatment)	inhibition at 500 µM ([4]; Mus musculus, NIH3T3, 24 hour prodrug treatment, read-out: inhibition of cell growth) [%]	sensitivity to prodrug (cell survival) [5]	pIC50 [6]	cells killed [7]	sensitivity to prodrug compared with line M2 [8]	sensitivity to prodrug ([9]; 60 minutes at 37° C., up to highest concentration tested)	fold more sensitive, M38 cells versus M2 cells ([8]; Example 5, 1×10^5 cells per well, 60 minutes treatment) [fold]	pIC50 ([9]; Example 7, 60 min treatment, survival after 5 days)	fold change of IC50 in 1:10 mixture versus M2 [10] [fold]
[NH2][Pt]([NH2])([Cl])[Cl] [CDDP, Cisplatin]	not found to be any difference	–	–	–	–	–	–	–	–	–	–	–	–	–
CS(=O)(=O)OCCN(CCCl)c1ccc(C(=O)N[C@@H](CCC(=O)O)C(=O)O)cc1 [CMDA, N-4-[(2-chloroethyl)(2-mesyloxyethyl)amino]benzoyl-L-glutamic acid]	–	minimal effect	complete cell death	-20	unaffected	-87	not sensitive to even the highest concentration	3.90	greater than 80%	more sensitive	did not show any sensitivity	–	–	–
O=C(O)CC[C@H](NC(=O)Oc1ccc(N(CCI)CCI)cc1)C(=O)O [prodrug 2, N-(4-[bis(2-iodoethyl)amino]phenoxycarbonyl)-L-glutamic acid]	–	–	–	–	–	–	–	–	–	more sensitive	–	~200	~3.70	-10
